In patent US5512581A, “Iminoxycarboxylates and derivatives as inhibitors of leukotriene biosynthesis” (Abbott Laboratories, priority 1995, dated 1996):

What follows are molecules tested on 5-Lipoxygenase (assay: Inhibition of calcium ionophore-induced LTB4 formation in human polymorphonuclear leukocytes (PMNL)). Details: stimulated LTB4 formation in human PMNL; calcium ionophore 8.3 μM, 15 min preincubation.
Assay type: cell-based
Procedure: Inhibition of leukotriene biosynthesis was evaluated in an assay involving calcium ionophore-induced LTB4 expressed in human polymorphornuclear leukocytes (PMNL). Human PMNL isolated from heparinized (20 USP units/mL) venous blood (25 mL) obtained from healthy volunteers was layered over an equal volume of Ficoll-Hypaque Mono-Poly Resolving Medium (ICN Flow, Costa Mesa, Calif.) and centrifugated at 400 x g for 40 min at 20° C. The PMNL was collected, erythrocytes lysed and washed 2x and suspended at 1.0×10^7 cells/mL in Earle's balanced salt solution with 17 mM Earle's HEPES. Aliquots of the cell suspension were preincubated with test compounds dissolved in DMSO (final concentration <2%) for 15 min. and stimulated with calcium ionophore (final concentration 8.3 μM) for 10 min. at 37° C. Incubations were stopped with the addition of two volumes of ice-cold methanol followed by centrifuging the cell suspensions at 4° C. for 10 min at 450 x g. The mount of LTB4 in the methanol extract was analyzed by enzyme-linked immunoassay or by HPLC analysis.

First: C/C(=N\O[C@@H](c1ccc(OCc2ccc3ccccc3n2)cc1)C1CCCCC1)C(=O)O [Example 35, (R)-Cyclohexyl-(4-(2-quinolylmethoxy)phenyl)methyl!-E-2-iminoxypropionic acid]
Second: C/C(=N\OC(c1ccc(OCc2ccc3ccccc3n2)cc1)C1CCCCC1)C(=O)O (stereo not shown) [Example 33, cyclohexyl-(4-(2-quinolylmethoxy)phenyl)methyl!-E-2-iminoxypropionic acid]
The IC50 of the first is 4.7-fold higher: 0.07 µM for the first, 0.015 µM for the second.

Going from C/C(=N/OC(c1ccc(OCc2ccc3ccccc3n2)cc1)C1CCCCC1)C(=O)O (stereo not shown) [Example 32, cyclohexyl-(4-(2-quinolylmethoxy)phenyl)methyl!-Z-2-iminoxypropionic acid] to CC(=NOC(c1ccc(OCc2ccc3ccccc3n2)cc1)C1CCCCC1)C(=O)O (stereo not shown) [Example 2, Cyclohexyl-(4-(2-quinolylmethoxy)phenyl)methyl!-2-iminoxy propionic acid], the IC50 falls from 0.17 µM to 0.004 µM (42-fold).

CC(=NOCC(c1ccc(OCc2ccc3ccccc3n2)cc1)C1CCCCC1)C(=O)O (stereo not shown) [Example 55, Cyclohexyl-1-(4-(2-quinolylmethoxy)phenyl)eth-2-yl!-2-iminoxy propionic acid] and C/C(=N\OC[C@@H](c1ccc(OCc2ccc3ccccc3n2)cc1)C1CCCC1)C(=O)O [Example 62] are within 1.5-fold of each other in IC50: 0.03 µM for the first, 0.036 µM for the second.

Going from CC(C)(C=NOCC(c1ccc(OCc2ccc3ccccc3n2)cc1)C1CCCCCC1)C(=O)O (stereo not shown) [Example 28, 2-cycloheptyl-2-(4-(2-quinolylmethoxy)phenyl)eth-1-yl!-3-iminoxy-2,2-dimethylpropionic acid] to O=C(O)C=NOCC(c1ccc(OCc2ccc3ccccc3n2)cc1)C1CCCCCC1 (stereo not shown) [Example 27, 2-Cycloheptyl-2-(4-(2-quinolylmethoxy)phenyl)eth-1-yl!iminoxyacetic acid], the IC50 rises from 0.005 µM to 0.008 µM (1.6-fold). The first is the more potent here.

C/C(=N\OC(c1ccc(OCc2ccc3ccccc3n2)cc1Cl)C1CCCCC1)C(=O)O (stereo not shown) [Example 44, Cyclohexyl-(2-chloro4-(2-quinolylmethoxy)phenyl)methyl!-E-2-iminoxypropionic acid] and C/C(=N\OC(c1ccc(OCc2ccc3ccccc3n2)c(Cl)c1)C1CCCCC1)C(=O)O (stereo not shown) [Example 45, Cyclohexyl-(3-chloro-4-(2-quinolylmethoxy)phenyl)methyl!-E-2-iminoxypropionic acid] cannot be ordered by IC50: less than 0.1 µM for the first, less than 0.1 µM for the second.

CCCCC(O/N=C/C(=O)O)c1ccc(OCc2ccc3ccccc3n2)cc1 (stereo not shown) [Example 51] and CCCCC(O/N=C(\C)C(=O)O)c1ccc(OCc2ccc3ccccc3n2)cc1 (stereo not shown) [Example 50, 4-(2-quinolylmethoxy)phenylpent-1-yl!-E-2-iminoxypropionic acid] cannot be ordered by IC50: less than 0.1 µM for the first, less than 0.1 µM for the second.

CC(C)(CC(O/N=C/C(=O)O)c1ccc(OCc2ccc3ccccc3n2)cc1)c1ccccc1 (stereo not shown) [Example 49, 3-methyl-3-phenyl-1-(4-(2-quinolylmethoxy)phenyl)but-1-yl!-E-2-iminoxyacetic acid] and C/C(=N\OC(CC(C)(C)c1ccccc1)c1ccc(OCc2ccc3ccccc3n2)cc1)C(=O)O (stereo not shown) [Example 48, 3-methyl-3-phenyl-1-(4-(2-quinolylmethoxy)phenyl)but-1-yl!-E-2-iminoxypropionic acid] cannot be ordered by IC50: less than 0.1 µM for the first, less than 0.1 µM for the second.

Compared with COC(=O)/C(C)=N/O[C@@H](c1ccc(OCc2ccc3ccccc3n2)cc1)C1CCCCC1 [Example 34], COC(=O)/C(C)=N/O[C@H](c1ccc(OCc2ccc3ccccc3n2)cc1)C1CCCCC1 [Example 36, (S)-Cyclohexyl-(4-(2-quinolylmethoxy)phenyl)methyl!-E-2-iminoxypropionic acid methyl ester] is 9.4-fold lower in IC50: 0.47 µM for the first, 0.05 µM for the second. The second is the more potent here.

C/C(=N\O[C@H](c1ccc(OCc2ccc3ccccc3n2)cc1)C1CCCCC1)C(=O)O [Example 37, (S)-Cyclohexyl-(4-(2-quinolylmethoxy)phenyl)methyl!-E-2-iminoxypropionic acid] and CC(=NOC(c1ccc(OCc2ccc3ccccc3n2)cc1)C1CCCCCC1)C(=O)O (stereo not shown) [Example 58, Cycloheptyl-(4-(2-quinolylmethoxy)phenyl)methyl!-2-iminoxy propionic acid] cannot be ordered by IC50: 0.006 µM for the first, less than 0.1 µM for the second.

First: CC(=NOC(CC1CCCCC1)c1ccc(OCc2ccc3ccccc3n2)cc1)C(=O)O (stereo not shown) [Example 15, 2-Cyclohexyl-1-(4-(2-quinolylmethoxy)phenyl)eth-1-yl!-2-iminoxypropionic acid]
Second: COC(=O)/C(C)=N\OC(c1ccc(OCc2ccc3ccccc3n2)cc1)C1CCCCC1 (stereo not shown) [Example 30, Cyclohexyl-(4-(2-quinolylmethoxy)phenyl)methyl!-Z-2-iminoxypropionic acid methyl ester]
The IC50 of the first is 28-fold lower: 0.006 µM for the first, 0.17 µM for the second.

O=C(O)/C=N/OC(c1ccc(OCc2ccc3ccccc3n2)cc1)C1CCCCC1 (stereo not shown) [Example 40, Cyclohexyl-(4-(2-quinolylmethoxy)phenyl)methyl!-E-iminoxyacetic acid] and O=C(O)C=NOC(c1ccc(OCc2ccc3ccccc3n2)cc1)C1CCCCC1 (stereo not shown) [Example 1, Cyclohexyl-(4-(2-quinolylmethoxy)phenyl)methyl!iminoxyacetic acid] are within 1.5-fold of each other in IC50: 0.017 µM for the first, 0.021 µM for the second.

Compared with O=C(O)c1ccc(C=NOC(CC2CCCCC2)c2ccc(OCc3ccc4ccccc4n3)cc2)cc1 (stereo not shown) [Example 14, O-2-Cyclohexyl-1-(4-(2-quinolylmethoxy)phenyl)eth-1-yl!-4-carboxybenzaldoxime], O=C(O)c1ccc(C=NOC(c2ccc(OCc3ccc4ccccc4n3)cc2)C2CCCCC2)cc1 (stereo not shown) [Example 6, O-Cyclohexyl-(4-(2-quinolylmethoxy)phenyl)methyl!-4-carboxybenzaldoxime] is 8-fold higher in IC50: 0.004 µM for the first, 0.032 µM for the second. The first is the more potent here.

C/C(=N\OC(c1ccc(OCc2ccc3ccccc3n2)cc1)c1cccs1)C(=O)O (stereo not shown) [Example 43, 2-thienyl-(4-(2-quinolylmethoxy)phenyl)methyl!-E-2-iminoxy propionic acid] and C/C(=N\OC(Cc1ccccc1)c1ccc(OCc2ccc3ccccc3n2)cc1)C(=O)O (stereo not shown) [Example 42, 2-phenyl-1-(4-(2-quinolylmethoxy)phenyl)eth-1-yl!-E-2-iminoxy propionic acid] cannot be ordered by IC50: less than 0.1 µM for the first, less than 0.1 µM for the second.

CC(=NOCc1ccc(OCc2ccc3ccccc3n2)cc1Cl)C(=O)O [Example 57, 2-chloro-(4-(2-quinolylmethoxy)phenyl)methyl!-2-iminoxy propionic acid] and COC(=O)/C(C)=N/OC(c1ccc(OCc2ccc3ccccc3n2)cc1)C1CCCCC1 (stereo not shown) [Example 31, Cyclohexyl-(4-(2-quinolylmethoxy)phenyl)methyl!-E-2-iminoxypropionic acid methyl ester] cannot be ordered by IC50: less than 0.1 µM for the first, 0.025 µM for the second.

Compared with O=C(O)C=NOC(CCCc1ccc(Cl)cc1)c1ccc(OCc2ccc3ccccc3n2)cc1 (stereo not shown) [Example 12, 4-(4-Chlorophenyl)-1-(4-(2-quinolylmethoxy)phenyl) butyl!iminoxyacetic acid], O=C(O)C=NOCC(c1ccc(OCc2ccc3ccccc3n2)cc1)C1CCCCC1 (stereo not shown) [Example 26] is 11-fold lower in IC50: 0.055 µM for the first, 0.005 µM for the second.

The molecules below were run on leukotriene biosynthesis (assay: In vivo leukotriene inhibition in rat peritoneal anaphylaxis model). Details: 30 μmol/kg, oral gavage 1 h before antigen challenge.
Procedure: Inhibition of the biosynthesis of leuktrienes in vivo after oral administration of compound was determined using a rat peritoneal anaphylaxis model in a similar manner as that described by Young and coworkers (Young, P. R.; Dyer, R. D.; Carter, G. W. Fed. Proc., Fed. Am. Soc. Exp. Biol. 1985, 44, 1185). In this model rats were injected intraperitoneally (ip) with rabbit antibody to bovine serum albumin (BSA) and three hours later injected ip with BSA to induce an antgen-antibody response. Rats were sacrificed 15 minutes after this challenge and the peritoneal fluids were collected and analyzed for leukotriene levels. Test compounds were administered by gavage one hour prior to the antigen challenge. Percent inhibition values were determined by comparing the treatment group to the mean of the control group.

In order of rising “% Inhibition (dose)” value:
1. O=C(O)c1ccc(C=NOC(CC2CCCCC2)c2ccc(OCc3cscn3)cc2)cc1 (stereo not shown) [Example 19, O-2-cyclohexyl-1-(4-(4-thiazolylmethoxy)phenyl)eth-1-yl!-4-carboxybenzaldoxime]  81%
2. O=C(O)C=NOC(c1ccc(OCc2ccc3ccccc3n2)cc1)C1CCCCC1 (stereo not shown) [Example 1, Cyclohexyl-(4-(2-quinolylmethoxy)phenyl)methyl!iminoxyacetic acid]  82%

Same assay, conditions: oral gavage 1 h before antigen challenge

In order of rising ED50:
1. O=C(O)C=NOCC(c1ccc(OCc2ccc3ccccc3n2)cc1)C1CCCCCC1 (stereo not shown) [Example 27, 2-Cycloheptyl-2-(4-(2-quinolylmethoxy)phenyl)eth-1-yl!iminoxyacetic acid]  0.7 mg/kg
2. CC(=NOC(c1ccc(OCc2ccc3ccccc3n2)cc1)C1CCCCC1)C(=O)O (stereo not shown) [Example 2, Cyclohexyl-(4-(2-quinolylmethoxy)phenyl)methyl!-2-iminoxy propionic acid]  1.2 mg/kg

What follows are molecules tested on leukotriene (assay: In vivo leukotriene inhibition in rat pleural inflammation (A23187 ionophore-induced)). Details: 30 μmol/kg, dosed in 0.2% methocel 1 h before intrapleural A23187, male rats.
Procedure: Pleural inflammation was induced in male rats following the method of Rao et al (Rao, T. S., Currie, J. L., Shaffer, A. F., Isakson, P. C., (1993) Evaluation of 5-lipoxygenase Inhibitors, Zileuton, A-78773 and ICI D-2138 in an Ionophore (A-23 187) Induced Pleural Inflammation Model in the Rat. Life Sciences, 53: 147). Rats were dosed with experimental compounds in 0.2% methocel one hour prior to the intrapleural injection of the calcium ionophore, A23 187. The rats where lightly anesthetized with Pentrane (Abbott Laboratories) and injected intrapleurally with 0.5 ml of 2% ethanol in injectable saline (Abbott Laboratories) containing 20 ug of A23187 (Cal BioChem-Novabiochem). Thirty minutes later the animals were euthanised and the pleural cavities lavaged with ice cold saline (Abbott Laboratories). The lavage fluid was then added to ice cold methanol (final methanol concentration 30%) to lyse cells and precipitate protein. Eicosanoids were determined by enzyme immunoassay by standard methods.

With CC(=NOC(c1ccc(OCc2ccc3ccccc3n2)cc1)C1CCCCC1)C(=O)O (stereo not shown) [Example 2, Cyclohexyl-(4-(2-quinolylmethoxy)phenyl)methyl!-2-iminoxy propionic acid] the “% Inhibition (dose)” value was 89%.

Same assay, conditions: Rattus norvegicus; dosed in 0.2% methocel 1 h before intrapleural A23187, male rats

In order of rising ED50:
1. C/C(=N\OC(c1ccc(OCc2ccc3ccccc3n2)c(Cl)c1)C1CCCCC1)C(=O)O (stereo not shown) [Example 45, Cyclohexyl-(3-chloro-4-(2-quinolylmethoxy)phenyl)methyl!-E-2-iminoxypropionic acid]  1.2 mg/kg
2. C/C(=N\OC(CC(C)(C)c1ccccc1)c1ccc(OCc2ccc3ccccc3n2)cc1)C(=O)O (stereo not shown) [Example 48, 3-methyl-3-phenyl-1-(4-(2-quinolylmethoxy)phenyl)but-1-yl!-E-2-iminoxypropionic acid]  2 mg/kg
